Data taken from patent publication US4074049A, “Antithrombotic 1,3,4-thiadiazole” (The Dow Chemical Company, priority 1976, dated 1978).
Where two headings read alike, the source gives them in different places.

What was measured:
[1] = test system: ADP-induced emboli / platelet aggregation; assay: Protection of mice from ADP challenge (inclined screen test); format: in vivo; settings: 60 mg/kg i.p.; ten mice; ADP i.v. one hour after compound
Experimental: Emboli formed in the vascular system of mice in response to the administration of ADP cause a stroke-like response that prevents mice from staying on an inclined screen. To illustrate the platelet aggregation inhibition effect of the 1,3,4-thiadiazoles, ten mice were dosed by intraperitoneal injection with 60 mgs per kilogram of body weight of the compound 2,5-bis(2-(diethylamino)ethylthio)-1,3,4-thiadiazole di-p-toluenesulfonic acid salt (Example 3). One hour after compound administration, the mice were challenged with ADP (0.05 M mole/kg) by injection via the tail vein and placed on an inclined screen. Unprotected control mice not injected with thiadiazole were unable to maintain their position on the screen when given a similar injection of ADP.

[2] = test system: ADP induced platelet aggregation; assay: In vivo platelet aggregation measurement, filter occlusion technique (Broersma et al.); parameters: species or system beagle dogs; settings: 20 mg/kg, intravenous, after 4 hours
Experimental: Measurement of platelet aggregation in vivo was carried out using the technique described by Broersma, et al., Thomb. diath. Haemorrhag. 29, 201 (1973). Such determinations are based upon the measurement of the blood pressure proximal to a filter with 53 micron openings through which arterial blood flows. Platelet aggregation partially obstructs the filter with time causing a change in the pressure which is proportional to the degree of platelet aggregation (thrombosis).
Fasted male beagle dogs were anesthetized with sodium pentobarbital (35 mg/kg), heparinized (16.5 μ/kg, i.v.) and tested for platelet function using aggregometry. Compounds were administered intravenously in solutions having the pH adjusted to 7.4. The solution was infused at a rate of 15.3 ml/min to total volume of 5 ml/kg of body weight. Thrombus formation was observed using the filter occlusion technique outlined above. Platelet count, hematocrit, blood pressure, and heart rate were also measured.

[3] = test system: tobacco black shank; assay: Control of tobacco black shank, soil drench; format: in vivo
[4] = test system: ADP-induced platelet aggregation; assay: In vitro inhibition of ADP-induced platelet aggregation (Born technique, optical density, platelet rich plasma); format: cell-based, rat
Experimental: Rat blood was collected into 3.0 percent trisodium citrate solution (1:10) by cardiac puncture undeer methoxyflurane anesthesia. The blood was centrifuged at 120 g for 10 minutes at room temperature and the supernatant platelet rich plasma was removed and diluted with lactated Ringer's solution containing the […] aggregation inhibiting agent (1.0:1.5). Samples of 1.0 ml were pipetted into plastic test tubes and incubated for three minutes. Plastic equipment was used for all procedures. The concentration of the thiadiazole compound in micromoles inhibiting ADP aggregation by 50 percent (IC50) was determined using changes in optical density as a indicium of platelet aggregation.

Question: With `CCN(CC)CCSc1nnc(SCCN(CC)CC)s1.Cc1ccc(S(=O)(=O)O)cc1.Cc1ccc(S(=O)(=O)O)cc1` [Example 3, 2,5-bis(2-(diethylamino)ethylthio)-1,3,4-thiadiazole di-p-toluenesulfonic acid salt] as the compound, how does the “mice protected from ADP challenge and able to remain on the screen” value [1] read?
Answer: 40%

Question: For `C1CN(CCSc2nnc(SCCN3CCOCC3)s2)CCO1` [2,5-bis-(2-(4-morpholinyl)ethylthio)-1,3,4-thiadiazole], which “reduction of ADP induced platelet aggregation in the dog” value [2] is on record?
Answer: 36%

Question: Which “control and killing of tobacco black shank (in words)” value [3] does the source give for `CCN(CC)CCSc1nnc(N)s1` [Example 2, 2-amino-5-(2-(diethylamino)ethylthio)-1,3,4-thiadiazole] here?
Answer: effective in the control and killing of tobacco black shank

Question: What about the “control of the disease (tobacco black shank)” value ([3]; solution of 25 ppm) of the same compound?
Answer: 100%

Question: Which results are given for `C(CSc1nnc(SCCCN2CCOCC2)s1)CN1CCOCC1` [Example 1, 2,5-bis(3-(4-morpholinyl)-propylthio)-1,3,4-thiadiazole]?
Answer: activity relative to aspirin in the inhibition of ADP induced platelet aggregation ([4]; compared with aspirin, conditions of this test): about twice as active as aspirin; IC50 ([4]; inhibits maximum ADP-induced platelet aggregation by 50%, rat platelet rich plasma, read-out: IC50 ADPmax): 6.28 µM; IC50 ([4]; inhibits the speed of the platelet aggregation by 50%, rat platelet rich plasma, read-out: IC50 ADPslope): 9.41 µM

Question: How did the IC50 ([4]; Rattus norvegicus, Platelet, read-out: IC50 ADPmax) turn out when `CC(=O)Oc1ccccc1C(=O)O` [Aspirin, reference compound] was run?
Answer: 12.8 µM

Question: What about the IC50 ([4]; Rattus norvegicus, Platelet, read-out: IC50 ADPslope) of the same compound?
Answer: 18.1 µM
